Reference: patent US12344618B2, “Heterotricyclic derivative compound and use of same” (HANMI PHARMACEUTICAL CO., LTD., priority 2019, dated 2025)
Where two headings read alike, the source gives them in different places.

What was measured:
EZH1 = molecular target: T1, EZH1 (Homo sapiens, UniProt Q92800); experiment: Inhibitory activity against EZH1 methyltransferase (radiometric scintillation proximity assay); assay type: biochemical; settings: 2.3 nmol/L enzyme, 90 minutes, room temperature;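 further: Read-out is methylation of a substrate peptide, captured on streptavidin-coated SPA beads and counted by scintillation, in Tris-HCl buffer at pH 8.0 with 1% DMSO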
T1 construct: purchased Reaction Biology Corp. (contract assay)

[1] = test system: KARPAS-422 (EZH2 Y641N mutation); experiment: Cell growth inhibition test, KARPAS-422; assay type: cell-based; settings: KARPAS-422, culture time 7 days, read-out: Cell growth inhibitory activity (GI50, nM) KARPAS-422 (EZH2 Y641N mutation)
[2] = test system: Pfeiffer (EZH2 A677G mutation); experiment: Cell growth inhibition test, Pfeiffer; assay type: cell-based; settings: Homo sapiens, read-out: Cell growth inhibitory activity (GI50, nM) Pfeiffer (EZH2 A677G mutation)
Experimental: (§1) Each type of the cultured cells was seeded in 6-well plates or 48-96 well plates, and subculture or medium replacement was performed every 3 to 4 days. Next, the cells were subcultured for a total of 7 to 14 days, and then seeded in 96-well plates. 3 to 5 days before the measurement of the effect, the cells were seeded in 96-well plates, and then the absorbance (Tz) on the day of seeding was measured. The absorbance after the reaction was measured by the plate reader device Synergy NeoAlpha (Biotek) using Cell-Titer-Glo Cell Viability Assay (Promega, G7573) according to the attached manual. Based on the absorbance (Tz) measured on the seeding day and the absorbance of each of the DMSO-treated group (C) and the sample-added group (Ti) measured on the day of effect determination, the percentage of cell proliferation inhibition was calculated according to the following Equation 1. [(Ti−Tz)/(C−Tz)]×100 for concentrations for which Ti≥Tz […] for concentrations for which Ti<Tz. [Equation 1]

[3] = Metabolic stability in human liver microsomes; assay type: in vitro ADME; settings: 5 μM compound, 1 mg/mL human liver microsomes, 37° C., NADPH regenerating system
Experimental: (§2) In order to confirm the metabolic stability of the synthetic compounds in the liver, 5 μM test compound and 1 mg/mL human, dog, rat or mouse liver microsomes were allowed to react with each other at 37° C. in the presence of the NADPH regenerating system for 1 hour. After 1 hour, the reaction was terminated and the supernatant obtained by centrifugation was analyzed by HPLC. With the peak value obtained as the analysis result, the residual amount (%) was calculated using the following equation through the peak value of the test compound after 1 hour of the reaction versus the peak value of the test compound at 0 min. Residual amount (%)=(peak value of test compound after 1 hour of reaction/peak value of test compound at 0 min)×100

[4] = Metabolic stability in mouse liver microsomes; assay type: in vitro ADME; settings: 5 μM compound, 1 mg/mL mouse liver microsomes, 37° C., NADPH regenerating system
Experimental: as §2

[5] = Mouse pharmacokinetics, oral single dose; assay type: in vivo; settings: plasma, mice (ICR, male), oral single dose 30 mg/kg; for AUC / half-life: male, ICR, mouse, po, 30 mg/kg; for AUC: read-out: Area under oral curve (AUC); for half-life: read-out: Half life T1/2 (converted)
Experimental: Pharmacokinetics of the synthetic compounds as EZH2 inhibitors in mice (ICR, 8-week-old, male) were tested.
The oral administration group was maintained in a fasting state from the day before the test to 4 hours after administration of the test compound. On the day of administration of the test compound, the weight of each animal was measured and each synthetic compound was formulated using a selected solvent based on 30 mg/kg (10 mL/kg). Each test compound was administered orally in a single dose, a certain amount of the blood was taken at a predetermined time, plasma was isolated therefrom, and the concentration of each test compound in the plasma was analyzed using LC-MS/MS (Waters UPLC H-Class/Xevo TQ; Waters, USA). Pharmacokinetic coefficients were calculated by a linear-log trapezoidal summation formula using a non-compartment analysis of the Phoenix™ WinNonlin (Certara, USA) program through the plasma concentration curve over time.

EZH2 = EZH2 (Homo sapiens, UniProt Q15910); experiment: Inhibitory activity against EZH2 methyltransferase (radiometric scintillation proximity assay); settings: Enzyme inhibitory activity (IC50, nM) EZH2, 2.3 nmol/L enzyme, 90 minutes, room temperature;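 further: Read-out is substrate peptide methylation, captured on streptavidin-coated SPA beads and counted by scintillation, with the reaction run in Tris-HCl buffer at pH 8.0 containing 1% DMSO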
SU-DHL-4 = experiment: Cell growth inhibition test, SU-DHL-4; assay type: cell-based; settings: Homo sapiens, read-out: Cell growth inhibitory activity (GI50, nM) SU-DHL-4
Experimental: (§3) In order to confirm the inhibitory effects of the synthetic compounds against the growth of blood cancer cell lines, evaluation was performed against KARPAS 422, RPMI 8226, KMS-11, JeKo-1, MV-4-11, Mino, Pfeiffer, SU-DHL-4, and RS4; 11 cell lines. A test for the Pfeiffer and SU-DHL-4 cell lines was performed by KYinno Co., Ltd., a test for the RS4; 11 cell line was performed by Shanghai Chempartner Co., Ltd., and a test for the Kasumi-1, MV-4-11, MM.1S, KMS-11, JeKo-1, Mino (ATCC), RPMI 8226 (KCLB), and KARPAS 422 (ECACC) cell lines was performed after purchase.
as §1, with “DMSO at a final concentration of 0.1% or less or a DMSO solution of each of the synthetic compounds was added to media to have the concentration and treatment time described in Table 5 below, and cells were cultured at 37° C. under 5% CO2. Each” for “Each”

RS4;11 = experiment: Cell growth inhibition test, RS4;11; assay type: cell-based; settings: Homo sapiens, read-out: Cell growth inhibitory activity (GI50, nM) RS4;11
Experimental: as §3
as §1, with “DMSO at a final concentration of 0.1% or less or a DMSO solution of each of the synthetic compounds was added to media to have the concentration and treatment time described in Table 5 below, and cells were cultured at 37° C. under 5% CO2. Each” for “Each”

MV4-11 = experiment: Cell growth inhibition test, MV4-11; assay type: cell-based; settings: Homo sapiens, 240 h; MV4-11, culture time 10 days; read-out: Cell growth inhibitory activity (GI50, nM) MV4-11
Experimental: as §3
as §1, with “DMSO at a final concentration of 0.1% or less or a DMSO solution of each of the synthetic compounds was added to media to have the concentration and treatment time described in Table 5 below, and cells were cultured at 37° C. under 5% CO2. Each” for “Each”

Kasumi-1 = experiment: Cell growth inhibition test, Kasumi-1; assay type: cell-based; settings: Homo sapiens, 240 h; Kasumi-1, culture time 10 days; read-out: Cell growth inhibitory activity (GI50, nM) Kasumi-1
Experimental: as §3
as §1, with “DMSO at a final concentration of 0.1% or less or a DMSO solution of each of the synthetic compounds was added to media to have the concentration and treatment time described in Table 5 below, and cells were cultured at 37° C. under 5% CO2. Each” for “Each”

MM.1S = experiment: Cell growth inhibition test, MM.1S; assay type: cell-based; settings: Homo sapiens, MM1.S, 264 h, culture time 11 days, read-out: Cell growth inhibitory activity (GI50, nM) MM.1S
Experimental: as §3
as §1, with “DMSO at a final concentration of 0.1% or less or a DMSO solution of each of the synthetic compounds was added to media to have the concentration and treatment time described in Table 5 below, and cells were cultured at 37° C. under 5% CO2. Each” for “Each”

RPMI8226 = experiment: Cell growth inhibition test, RPMI8226; assay type: cell-based; settings: Homo sapiens, RPMI-8226, 168 h; RPMI8226, culture time 7 days; read-out: Cell growth inhibitory activity (GI50, nM) RPMI8226
Experimental: as §3
as §1, with “DMSO at a final concentration of 0.1% or less or a DMSO solution of each of the synthetic compounds was added to media to have the concentration and treatment time described in Table 5 below, and cells were cultured at 37° C. under 5% CO2. Each” for “Each”

KMS-11 = experiment: Cell growth inhibition test, KMS-11; assay type: cell-based; settings: Homo sapiens, 240 h; KMS-11, culture time 10 days; read-out: Cell growth inhibitory activity (GI50, nM) KMS-11
Experimental: as §3
as §1, with “DMSO at a final concentration of 0.1% or less or a DMSO solution of each of the synthetic compounds was added to media to have the concentration and treatment time described in Table 5 below, and cells were cultured at 37° C. under 5% CO2. Each” for “Each”

Mino = experiment: Cell growth inhibition test, Mino; assay type: cell-based; settings: Homo sapiens, 336 h, culture time 14 days, read-out: Cell growth inhibitory activity (GI50, nM) Mino
Experimental: as §3
as §1, with “DMSO at a final concentration of 0.1% or less or a DMSO solution of each of the synthetic compounds was added to media to have the concentration and treatment time described in Table 5 below, and cells were cultured at 37° C. under 5% CO2. Each” for “Each”

JeKo-1 = experiment: Cell growth inhibition test, JeKo-1; assay type: cell-based; settings: Homo sapiens, 240 h; JeKo-1, culture time 10 days; read-out: Cell growth inhibitory activity (GI50, nM) JeKo-1
Experimental: as §3
as §1, with “DMSO at a final concentration of 0.1% or less or a DMSO solution of each of the synthetic compounds was added to media to have the concentration and treatment time described in Table 5 below, and cells were cultured at 37° C. under 5% CO2. Each” for “Each”

[6] = Metabolic stability in dog liver microsomes; assay type: in vitro ADME; settings: 5 μM compound, 1 mg/mL dog liver microsomes, 37° C., NADPH regenerating system
Experimental: as §2

[7] = Metabolic stability in rat liver microsomes; assay type: in vitro ADME; settings: 5 μM compound, 1 mg/mL rat liver microsomes, 37° C., NADPH regenerating system
Experimental: as §2

[8] = Homo sapiens, KARPAS-422, 168 h

T1 sequence (Q92800 whole entry): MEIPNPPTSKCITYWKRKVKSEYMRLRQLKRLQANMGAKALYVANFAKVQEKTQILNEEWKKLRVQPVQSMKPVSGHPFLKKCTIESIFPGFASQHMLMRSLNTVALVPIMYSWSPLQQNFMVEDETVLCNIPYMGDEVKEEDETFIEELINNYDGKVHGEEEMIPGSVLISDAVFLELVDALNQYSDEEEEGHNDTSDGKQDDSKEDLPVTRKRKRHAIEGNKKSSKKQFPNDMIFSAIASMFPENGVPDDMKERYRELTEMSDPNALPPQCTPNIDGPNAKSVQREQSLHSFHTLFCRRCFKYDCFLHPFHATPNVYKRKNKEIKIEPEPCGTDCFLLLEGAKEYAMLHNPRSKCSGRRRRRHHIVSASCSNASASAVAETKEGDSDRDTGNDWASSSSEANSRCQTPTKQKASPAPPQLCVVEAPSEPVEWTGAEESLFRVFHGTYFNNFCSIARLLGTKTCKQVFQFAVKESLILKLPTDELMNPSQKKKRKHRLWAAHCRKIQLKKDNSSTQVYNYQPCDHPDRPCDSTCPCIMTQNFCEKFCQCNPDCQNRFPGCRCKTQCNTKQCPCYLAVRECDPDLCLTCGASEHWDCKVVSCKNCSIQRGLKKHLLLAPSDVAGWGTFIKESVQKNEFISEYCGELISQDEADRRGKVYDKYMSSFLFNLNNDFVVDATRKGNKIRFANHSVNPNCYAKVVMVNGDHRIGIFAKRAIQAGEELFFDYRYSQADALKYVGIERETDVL
T1 sequence (O75530 whole entry partner): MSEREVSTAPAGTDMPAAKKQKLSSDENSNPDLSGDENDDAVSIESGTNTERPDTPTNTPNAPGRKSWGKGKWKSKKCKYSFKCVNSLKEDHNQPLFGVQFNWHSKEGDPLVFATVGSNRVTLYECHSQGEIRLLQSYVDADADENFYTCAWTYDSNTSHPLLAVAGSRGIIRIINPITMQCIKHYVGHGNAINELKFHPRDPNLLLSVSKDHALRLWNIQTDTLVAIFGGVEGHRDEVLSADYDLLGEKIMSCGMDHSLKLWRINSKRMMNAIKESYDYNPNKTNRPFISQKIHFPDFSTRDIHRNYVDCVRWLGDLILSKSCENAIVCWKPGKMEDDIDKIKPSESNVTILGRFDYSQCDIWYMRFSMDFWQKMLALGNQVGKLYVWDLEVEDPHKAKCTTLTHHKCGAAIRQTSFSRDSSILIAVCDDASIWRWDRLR
T1 sequence (Q15022 whole entry partner): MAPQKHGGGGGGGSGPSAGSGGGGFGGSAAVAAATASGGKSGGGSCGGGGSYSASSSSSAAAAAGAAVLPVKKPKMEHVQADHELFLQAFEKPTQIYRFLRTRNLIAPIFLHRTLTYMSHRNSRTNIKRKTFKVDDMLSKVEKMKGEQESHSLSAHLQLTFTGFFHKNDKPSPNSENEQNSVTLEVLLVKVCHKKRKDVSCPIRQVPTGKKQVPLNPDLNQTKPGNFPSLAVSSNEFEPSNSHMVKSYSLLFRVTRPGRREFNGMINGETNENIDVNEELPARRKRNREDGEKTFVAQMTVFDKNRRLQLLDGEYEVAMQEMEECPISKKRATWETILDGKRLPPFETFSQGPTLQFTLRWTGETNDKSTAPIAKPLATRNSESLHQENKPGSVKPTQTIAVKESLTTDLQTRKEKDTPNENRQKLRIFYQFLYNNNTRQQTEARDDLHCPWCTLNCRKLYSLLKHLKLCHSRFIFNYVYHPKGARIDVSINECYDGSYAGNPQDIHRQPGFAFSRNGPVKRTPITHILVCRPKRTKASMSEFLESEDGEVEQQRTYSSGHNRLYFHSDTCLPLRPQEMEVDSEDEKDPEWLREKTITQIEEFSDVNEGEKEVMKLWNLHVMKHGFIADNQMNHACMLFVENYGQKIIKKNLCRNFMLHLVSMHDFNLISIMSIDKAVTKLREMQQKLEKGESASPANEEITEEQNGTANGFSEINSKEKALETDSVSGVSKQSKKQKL
T1 sequence (Q09028 whole entry partner): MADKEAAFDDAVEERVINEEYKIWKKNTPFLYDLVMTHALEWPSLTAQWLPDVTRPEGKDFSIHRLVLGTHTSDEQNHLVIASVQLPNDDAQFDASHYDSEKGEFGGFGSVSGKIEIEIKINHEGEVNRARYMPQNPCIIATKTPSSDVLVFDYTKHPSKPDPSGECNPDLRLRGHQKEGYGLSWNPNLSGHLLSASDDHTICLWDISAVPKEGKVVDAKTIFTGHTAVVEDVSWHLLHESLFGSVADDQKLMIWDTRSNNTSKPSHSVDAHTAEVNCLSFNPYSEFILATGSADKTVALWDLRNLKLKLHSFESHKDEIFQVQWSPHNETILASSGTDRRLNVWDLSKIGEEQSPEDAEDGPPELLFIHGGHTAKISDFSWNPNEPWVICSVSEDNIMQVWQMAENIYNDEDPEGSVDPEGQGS
T1 sequence (Q6ZN18 whole entry partner): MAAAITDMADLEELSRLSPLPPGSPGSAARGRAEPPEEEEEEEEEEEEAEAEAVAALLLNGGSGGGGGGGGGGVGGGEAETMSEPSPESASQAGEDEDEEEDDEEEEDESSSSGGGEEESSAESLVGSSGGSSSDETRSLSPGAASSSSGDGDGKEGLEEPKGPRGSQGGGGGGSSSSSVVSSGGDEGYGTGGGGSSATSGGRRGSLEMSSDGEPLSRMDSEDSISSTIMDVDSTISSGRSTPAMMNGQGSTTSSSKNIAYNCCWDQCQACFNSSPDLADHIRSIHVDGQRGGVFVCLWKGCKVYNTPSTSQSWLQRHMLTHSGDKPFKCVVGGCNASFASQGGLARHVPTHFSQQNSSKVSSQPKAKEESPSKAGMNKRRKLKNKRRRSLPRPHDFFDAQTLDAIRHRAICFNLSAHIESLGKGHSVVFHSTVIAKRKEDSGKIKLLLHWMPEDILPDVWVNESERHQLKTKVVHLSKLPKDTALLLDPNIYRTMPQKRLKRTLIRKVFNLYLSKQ
Sequence of EZH2 (Q15910 whole entry): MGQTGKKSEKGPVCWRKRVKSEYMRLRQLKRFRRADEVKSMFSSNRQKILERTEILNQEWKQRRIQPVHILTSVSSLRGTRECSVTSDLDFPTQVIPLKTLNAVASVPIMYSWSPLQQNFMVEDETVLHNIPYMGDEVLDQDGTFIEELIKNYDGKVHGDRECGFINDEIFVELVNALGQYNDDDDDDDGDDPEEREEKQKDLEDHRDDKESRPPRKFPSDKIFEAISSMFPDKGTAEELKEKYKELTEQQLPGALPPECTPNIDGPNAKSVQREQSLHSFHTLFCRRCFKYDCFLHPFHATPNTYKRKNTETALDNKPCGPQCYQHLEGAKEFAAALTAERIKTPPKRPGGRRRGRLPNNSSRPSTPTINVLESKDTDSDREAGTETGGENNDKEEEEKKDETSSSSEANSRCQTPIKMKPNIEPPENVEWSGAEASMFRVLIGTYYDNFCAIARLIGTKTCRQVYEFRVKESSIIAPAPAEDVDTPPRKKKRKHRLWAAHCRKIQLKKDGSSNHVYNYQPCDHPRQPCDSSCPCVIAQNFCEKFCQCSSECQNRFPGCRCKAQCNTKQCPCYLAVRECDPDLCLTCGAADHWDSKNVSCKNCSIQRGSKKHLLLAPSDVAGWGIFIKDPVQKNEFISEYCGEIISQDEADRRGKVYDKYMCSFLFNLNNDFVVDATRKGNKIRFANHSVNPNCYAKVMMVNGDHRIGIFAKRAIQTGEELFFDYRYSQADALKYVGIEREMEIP
Sequence of EZH2 (O75530 whole entry partner): as the sequence (O75530 whole entry partner) above
Sequence of EZH2 (Q15022 whole entry partner): as the sequence (Q15022 whole entry partner) above
Sequence of EZH2 (Q09028 whole entry partner): as the sequence (Q09028 whole entry partner) above
Sequence of EZH2 (Q6ZN18 whole entry partner): as the sequence (Q6ZN18 whole entry partner) above

SMILES | IC50 (EZH1) | GI50 [1, 8] | Residual amount (%) of test compound after 1 hour of reaction, Human [3] | Residual amount (%) of test compound after 1 hour of reaction, Mouse [4] | AUC [5] | IC50 (EZH2) | half-life [5] | GI50 (SU-DHL-4) | GI50 (RS4;11) | GI50 (MV4-11) | GI50 (MM.1S) | GI50 (RPMI8226) | Residual amount (%) of test compound after 1 hour of reaction, Dog [6] | GI50 [2] | GI50 (Kasumi-1) | GI50 (KMS-11) | GI50 (Mino) | GI50 (JeKo-1) | further results
Cc1cc(C)c(CN2CCc3c(Cl)c4c(c(C)c3C2=O)OC(C)([C@H]2CC[C@H](N(C)C)CC2)O4)c(=O)[nH]1 (mixture of isomers) [Compound 9, 9-chloro-6-((4,6-dimethyl-2-oxo-1,2-dihydropyridin-3-yl)methyl)-2-(trans-4-(dimethylamino)cyclohexyl)-2,4-dimethyl-7,8-dihydro-[1,3]dioxolo[4,5-g]isoquinolin-5(6H)-one] | 16 to 43 nM | 2 to 15 nM | 57% | 56% | 14900 to 16400 ng·h/mL | 1.5 to 5 nM |  |  |  |  |  |  |  | 0.97 nM |  |  |  |  | Half life T1/2 [5]: 2.4~2.3 hr
Cc1cc(C)c(CN2CCc3c(Br)c4c(c(C)c3C2=O)OC(C)([C@H]2CC[C@H](N(C)C)CC2)O4)c(=O)[nH]1 (stereo partly drawn) [Compound 48, 9-bromo-6-((4,6-dimethyl-2-oxo-1,2-dihydropyridin-3-yl)methyl)-2-(trans-4-(dimethylamino)cyclohexyl)-2,4-dimethyl-7,8-dihydro-[1,3]dioxolo[4,5-g]isoquinolin-5(6H)-one] |  | 3.7 to 12.4 nM | 54% | 52% | 17300 to 18700 ng·h/mL |  | 2.8 to 3.2 h |  |  |  |  |  |  | 0.77 nM |  |  |  |  | 
CCN(c1cc(-c2ccc(CN3CCOCC3)cc2)cc(C(=O)NCc2c(C)cc(C)[nH]c2=O)c1C)C1CCOCC1 [Control A, N-((4,6-dimethyl-2-oxo-1,2-dihydropyridin-3-yl)methyl)-5-(ethyl(tetrahydro-2H-pyran-4-yl)amino)-4-methyl-4′-(morpholinomethyl)-[1,1′-biphenyl]-3-carboxamide] |  |  |  |  | 4880 ng·h/mL |  | 0.6 h | 281 nM | 932 nM | 220 nM | 204 nM | 315 nM | 14% |  | > 1000 nM | 554 nM | 225 nM | 3580 nM | 

Continued, in another order:

IC50 (EZH1) | GI50 [1, 8] | Residual amount (%) of test compound after 1 hour of reaction, Human [3] | Residual amount (%) of test compound after 1 hour of reaction, Mouse [4] | AUC [5] | IC50 (EZH2) | half-life [5] | GI50 (SU-DHL-4) | GI50 (RS4;11) | GI50 (MV4-11) | GI50 (MM.1S) | GI50 (RPMI8226) | Residual amount (%) of test compound after 1 hour of reaction, Dog [6] | SMILES | GI50 [2] | GI50 (Kasumi-1) | GI50 (KMS-11) | GI50 (Mino) | GI50 (JeKo-1) | further results
9.7 to 30 nM | 3.2 to 8.4 nM | 62% | 80% | 3650 ng·h/mL | 1.2 to 6.2 nM |  |  |  |  |  |  |  | Cc1cc(C)c(CN2CCc3c(C)c4c(c(C)c3C2=O)OC(C)([C@H]2CC[C@H](N(C)C)CC2)O4)c(=O)[nH]1 (stereo partly drawn) [Compound 39, 6-((4,6-dimethyl-2-oxo-1,2-dihydropyridin-3-yl)methyl)-2-(trans-4-(dimethylamino)cyclohexyl)-2,4,9-trimethyl-7,8-dihydro-[1,3]dioxolo[4,5-g]isoquinolin-5(6H)-one] | 0.76 to 0.99 nM |  |  |  |  | 
23 to 35 nM | 1.8 to 9.6 nM | 82% | 79% | 1040 ng·h/mL | 1.8 to 2.3 nM |  |  |  |  |  |  |  | COc1cc(C)[nH]c(=O)c1CN1CCc2c(Cl)c3c(c(C)c2C1=O)OC(C)([C@H]1CC[C@H](N(C)C)CC1)O3 (stereo partly drawn) [Compound 13, 9-chloro-2-(trans-4-(dimethylamino)cyclohexyl)-6-((4-methoxy-6-methyl-2-oxo-1,2-dihydropyridin-3-yl)methyl)-2,4-dimethyl-7,8-dihydro-[1,3]dioxolo[4,5-g]isoquinolin-5(6H)-one] | 0.27 nM |  |  |  |  | 
 |  | 67% | 52% | 9960 ng·h/mL |  | 2.9 h | 11 nM | 24 nM | 3.9 nM | 1.4 nM | 6.4 nM | 74% | Cc1cc(C)c(CN2CCc3c(Br)c4c(c(C)c3C2=O)OC(C)([C@H]2CC[C@H](N(C)C)CC2)O4)c(=O)[nH]1 (single isomer, unassigned) [Compound 49, 9-bromo-6-((4,6-dimethyl-2-oxo-1,2-dihydropyridin-3-yl)methyl)-2-(trans-4-(dimethylamino)cyclohexyl)-2,4-dimethyl-7,8-dihydro-[1,3]dioxolo[4,5-g]isoquinolin-5(6H)-one] | 0.21 nM | 51 nM | 8.1 nM | 2 nM | 42 nM | GI50 [1]: 1.2 to 9.7 nM; Residual amount (%) of test compound after 1 hour of reaction, Rat [7]: 84%
